# Test results taken from patent US11458120B2, “Aptamer-drug conjugate and use thereof” (priority 2016, dated 2022).
# Non-standard residues stand in square brackets, D forms with d. Residues, ends and D or L forms follow the SMILES beside them. *: point of attachment. Dolaproine = CO[C@@H]([C@@H]1CCCN1)[C@@H](C)C(=O)O; Dil = CC[C@H](C)[C@H](NC)[C@@H](CC(=O)O)OC; X1 = C[C@@H](N*)[C@@H](O)c1ccccc1; NMeV = CN[C@H](C(=O)O)C(C)C
# Tests used:
# A549 cell line = assay: MTT assay to A549 cell lines; format: cell-based; conditions: A549 cells, 72 hours incubation, FIG. 17 and FIG. 18
# Method: With regard to A549 cell line as a lung cancer cell line over-expressing a nucleoline protein, cell inhibition efficacy of MMAE-(PAB-Cit-Val-MC-S-C6)-T3-AS1411 was verified in vitro by MTT assay. […] A549 cells (ATCC, IMDM+10% FBS) were seeded on a 96-well plate in a cell number of 2.5 to 5×10^5 cells/well, which was determined by a cell test method to determine an appropriate cell concentration, followed by growing for 1 day. After heating each of MMAE-(PAB-Cit-Val-MC-S-C6)-T3-AS1411 and MMAE-(PAB-Cit-Val-MC-S-C6)-T3-CRO at 95° C. for 5 minutes, the heated product was gradually cooled at room temperature and directly treated on each well at different concentrations. […] Thereafter, the final product was subjected to measurement of absorbance at 490 nm by an ELISA reader (FIG. 5).
# With regard to A549 cell line as a lung cancer cell line over-expressing a nucleoline protein, cell inhibition efficacies of MMAE-(PAB-Cit-Val-MC-S-C6)-T3-AS1411, 12 or 13-(MMAE-PAB-Cit-Val-MC-S-C6)-AS1411 and 12,13-(MMAE-PAB-Cit-Val-MC-S-C6)2-AS1411 were verified in vitro by MTT assay. […] A549 cells (ATCC, IMDM+10% FBS) were seeded on a 96-well plate in a cell number of 2.5 to 5×10^5 cells/well, which was determined by a cell test method to determine an appropriate cell concentration, followed by growing for 1 day. […]
# [1] = reported by the Weihong Tang group, University of Florida; cited from earlier work
# [2] = test system: Mv4-11 AML cell line-injected mice; assay: In vivo therapeutic efficacy on Mv4-11 AML cell line-injected mice (FDG PET); parameters: species or system nude mouse; conditions: Mv4-11 AML tumor, i.v. 4 times by 5 day intervals, conjugate 7.5 mg/kg or MMAE 0.5 mg/kg, 30 days after start of treatment
# Method: (§1) To Mv4-11 AML cell line-injected mice, citravin-(GLFG-MC-S-C6)-T3-AS1411 and MMAE, respectively, were administered by IV injection for 30 days, followed by identifying tumor sizes through PET images. Mv4-11 AML cells in a number of 6.1×10^6 cells/ml were injected subcutaneously in the right thigh of each nude mouse. The tumor size was measured in 3 to 4 weeks after the injection and, when a diameter of the tumor reached 0.8 cm, microPET images were captured before treatment. For PET images, F-18 FDG 0.2 mCi was i.p. injected and then the images were captured (Siemens Inveon). After detection of FDG intake in the tumor from the images, citravin-(GLFG-MC-S-C6)-T3-AS1411 was i.v. injected in an experimental group of 5 mice 4 times by 5 day intervals (7.5 mg/kg, 0.5 mg/kg of MMAE). After 30 days from the start of treatment, microPET images were captured by the same method as used before treatment (FIG. 13 and FIG. 14).
# To Mv4-11 AML cell line-injected mice, MMAE was administered by IV injection for 30 days, followed by observation of PET images. Mv4-11 AML cells in the number of 6.1×10^6 cells/ml were injected subcutaneously in the right thigh of each nude mouse. The tumor size was measured in 3 to 4 weeks after the injection and, when a diameter of the tumor reached 0.8 cm, microPET images were captured before treatment. […]
# [3] = test system: A549 lung cancer cell line-injected mice; assay: In vivo therapeutic efficacy on A549 lung cancer cell line-injected mice (FDG PET, tumor size); parameters: species or system nude mouse; conditions: i.v. 4 times by 5 day intervals, conjugate 7.5 mg/kg (0.5 mg/kg of MMAE) or MMAE 0.5 mg/kg, 30 days after start of treatment
# Method: as §1, with “A549 lung cancer” for “Mv4-11 AML”, “MMAE-(PAB-Cit-Val-MC-S-C6)-T3-AS1411” for “citravin-(GLFG-MC-S-C6)-T3-AS1411”, “After 30 days from the start of treatment, microPET images were captured by the same method as used before treatment (FIG. 13 and FIG. 14).” left out
# To A549 lung cancer cell-injected mice, MMAE was administered by IV injection for 30 days, followed by observation of PET images. […] The tumor size was measured in 3 to 4 weeks after the injection and, when a diameter of the tumor reached 0.8 cm, microPET images were captured before treatment. […]
# As compared to administration of MMAE alone, it was determined that MMAE-(PAB-Cit-Val-MC-S-C6)-T3-AS1411 inhibits 80% more cancer. After the start of treatment, sizes of tumors were measured in both of horizontal and vertical axes by 5 day intervals. […]
# Mv4-11 cell line = assay: MTT assay to Mv4-11 cell lines; format: cell-based; conditions: Mv4-11 cells, 72 hours incubation, absorbance at 490 nm, FIG. 6
# Method: With regard to Mv4-11 cell line as a […] over-expressing a nucleoline protein, cell inhibition efficacy of citravin-(GLFG-MC-S-C6)-T3-AS1411 was verified in vitro by MTT assay. […] Mv4-11 cells (ATCC, IMDM+10% FBS) were seeded on a 96-well plate in a cell number of 2.5 to 5×10^5 cells/well, which was determined by a cell test method to determine an appropriate cell concentration, followed by growing for 1 day. After heating each of citravin-(GLFG-MC-S-C6)-T3-AS1411 and citravin-(GLFG-MC-S-C6)-T3-CRO at 95° C. for 5 minutes, the heated product was gradually cooled at room temperature and directly treated on each well at different concentrations. After incubating the treated A549 cells in 5% CO2 incubator for 72 hours, the incubated product was treated with 20 μL of a reagent solution for MTT assay (Cell Proliferation kit II, Roche) and incubated for different periods of time (10 min, 30 min, 1 hr). Thereafter, the final product was subjected to measurement of absorbance at 490 nm by an ELISA reader (FIG. 6).
compound,measurement,setting,value
"ggtggtggtggu (SEQ ID NO: 4)[5-N-(6-(3-monomethyl auristatin-p-aminobenzoyloxycarbonyl-citrulline-valine-Mal-thiopropanoyl)-aminohexyl)-3-acrylamido]u[5-N-(6-(3-monomethyl auristatin-p-aminobenzoyloxycarbonyl-citrulline-valine-Mal-thiopropanoyl)-aminohexyl)-3-acrylamido]gtggtggtggtgg (DNA GGTGGTGGTGGU; two MMAE-linker conjugates at positions 12,13, chemistry not fully specified) [12,13-(MMAE-PAB-Cit-Val-MC-S-C6)2-AS1411]","cell inhibition efficacy by MTT assay, comparison between MMAE-linker-aptamer conjugates",A549 cell line,superior efficacy over of MMAE-(PAB-Cit-Val-MC-S-C6)-T3-AS1411
COc1cccc2c1C(=O)c1c(O)c3c(c(O)c1C2=O)C[C@@](O)(C(=O)CO)C[C@@H]3O[C@H]1C[C@H](N)[C@H](O)[C@H](C)O1 [doxorubicin],cytotoxic effects,[1],20%
"CC[C@H](C)[C@@H]([C@@H](CC(=O)N1CCC[C@H]1[C@H](OC)[C@@H](C)C(=O)N[C@H](C)[C@@H](O)c1ccccc1)OC)N(C)C(=O)[C@@H](NC(=O)[C@@H](NC)C(C)C)C(C)C [MMAE, monomethyl auristatin E, reference compound] (H-[NMeV]V[Dil][Dolaproine]-X1)","FDG intake in the tumor from PET images, after vs before treatment",[2],FDG intake in the tumor was increased even after treatment
same,"FDG intake in the tumor from PET images, after vs before treatment",[3],FDG intake in the tumor was increased even after treatment
citravin-(Gly-Leu-Phe-Gly (SEQ ID NO: 8))-Mal-S-C6-tttggtggtggtggttgtggtggtggtgg [citravin-(GLFG-MC-S-C6)-T3-AS1411],"cell inhibition efficacy (cell viability and cell proliferation) by MTT assay, compared with citravin",Mv4-11 cell line,almost the same efficacy as citravin
same,"FDG intake in the tumor from PET images, after vs before treatment",[2],a decrease in FDG intake in the tumor is observed
